For one assay, the system named is α-synuclein. Briefly: Immunohistochemistry of α-synuclein, wild-type mice. The format is in vivo. More on the design: key: ‘—’ indicates no effect. Conditions: LMTM 5 or 15 mg/kg/day alone or following chronic rivastigmine 0.1 or 0.5 mg/kg/day, approximate rounded percentages. The method, then:
(§1) Wild-type and L1 mice (n=7-16 for each group) were pre-treated with rivastigmine (0.1 or 0.5 mg/kg/day) or memantine (2 or 20 mg/kg/day) or vehicle for 5 weeks by gavage. For the following 6 weeks, LMTM (5 and 15 mg/kg) or vehicle were added to this daily treatment regime, also by gavage. Animals were tested behaviourly during weeks 10 and 11 using a problem solving task in the open field water maze and then sacrificed for immunohistochemical and other tissue analyses.
(§2) Translating doses from mice to humans requires consideration of a number of factors. […] The higher dose of 15 mg/kg/day is generally required for LMTM to be fully effective in the L1 mouse model (Melis et al., 2015a). […] Tissue sectioned for immunohistochemistry was labelled with antibody and processed using Image J to determine protein expression densitometrically. Data are presented as Z-score transformations without units.

Assay [1] concerns ACh levels in the hippocampus. Briefly: Hippocampal ACh levels with scopolamine blocking M2/M4 negative feedback receptors. The class given is in vivo, wild type mice.
Assay [2] has as its system acetylcholine (ACh) levels in hippocampus. Description: ACh levels in hippocampus, microdialysis probe and HPLC, wild-type mice. The class given is in vivo. The method, then: For measurement of acetylcholine (ACh) levels in hippocampus, animals (wild-type or L1) were treated with LMTM (5 mg/kg/day for 2 weeks) after prior treatment for 2 weeks with or without rivastigmine (0.5 mg/kg/day). Rivastigmine was administered subcutaneously with an Alzet minipump whereas LMTM was administered by oral gavage. Levels of ACh were measured in hippocampus using an implanted microdialysis probe and HPLC analysis of the extracellular fluid.
Data are presented as group averages and standard errors of mean and were analysed using parametric statistics, with alpha set to 0.05.

The test system of the next assay is mitochondrial complex IV. Description: Mitochondrial complex IV activity, wild-type mice. The class given is in vivo. The conditions noted are these: LMTM 5 or 15 mg/kg/day alone or following chronic rivastigmine 0.1 or 0.5 mg/kg/day, approximate rounded percentages. How it is done:
as §1

The test system of a further assay is wild-type mice. Description: Behaviour, problem solving task in the open field water maze, wild-type mice. The class given is in vivo. The conditions noted are these: LMTM 5 or 15 mg/kg/day alone or following chronic rivastigmine 0.1 or 0.5 mg/kg/day, approximate rounded percentages. How it is done:
as §1

For a further assay, the system named is synaptophysin. Briefly: Immunohistochemistry of synaptophysin, wild-type mice. The class given is in vivo. How it is done:
FIG. 1. Treatment effects of LMTM alone or following chronic pretreatment with rivastigmine in wild-type mice on hippocampal levels of acetylcholine (A) or synaptophysin levels measured immunohistochemically as the mean in hippocampus, visual cortex, diagonal band and septum (B). (**, p<0.01; ***, p<0.001).
as §1, §2

The subject of assay [3] is SNARE complex proteins (SNAP25, syntaxin and VAMP2). Description: Immunohistochemistry of SNARE complex proteins, wild-type mice. The class given is in vivo. The arrangement: key: ‘—’ indicates no effect. Conditions: LMTM 5 or 15 mg/kg/day alone or following chronic rivastigmine 0.1 or 0.5 mg/kg/day, approximate rounded percentages. The method, then:
as §1, §2

Where a name gives a salt, the structure may show the parent alone.

With `CN(C)c1ccc2c(c1)Sc1cc(N(C)C)ccc1N2` [LMTM, hydromethylthionine mesylate], the α-Synuclein result in the assay with α-synuclein is listed as “—”. The “increase in ACh levels in scopolamine experiments” value in assay [1] (wild type mice, scopolamine blocking M2/M4 negative feedback receptors, 100 nanomolar rivastigmine in perfusion fluid) is reported as “less than that seen with rivastigmine alone”. For the same compound, the “reduction in basal ACh levels in hippocampus” value in assay [2] (LMTM after prior treatment with rivastigmine (0.5 mg/kg/day)) is listed as 30%. In addition, the “increase in basal ACh levels in hippocampus” value in assay [2] (LMTM treatment alone (5 mg/kg/day for 2 weeks), significant) was 2 fold. Also, the “Mitochondrial complex IV” value with mitochondrial complex IV was “did not show any increase and —”. In the assay on wild-type mice, the Behaviour entry is “not associated with improvement in spatial recognition memory and —”. Further, the “change in mean synaptophysin levels” value in the assay with synaptophysin (LMTM given against a background of prior treatment with rivastigmine) is on record as “statistically significant reduction of the same magnitude”. For the same compound, the “increase in mean synaptophysin levels” value in the assay with synaptophysin (hippocampus, visual cortex, diagonal band and septum, LMTM treatment alone) came to 3 fold. The SNARE complex entry in assay [3] is recorded as “—”.
As to `CN1[C@@H]2C[C@@H](OC(=O)[C@H](CO)c3ccccc3)C[C@H]1[C@@H]1O[C@@H]12` [scopolamine, reference compound], the “rise in ACh levels” value in assay [1] (hippocampus, scopolamine 1 μM added to the perfusion fluid containing 100 nanomolar rivastigmine) is 3-5 fold.

The values are drawn from patent US20220370470A1 (WisTa Laboratories Ltd., priority 2019, published 2022).
